From the supplement of paper PMC10307832

What was measured:
Experiment in all cases: relative viability (nuclei count vs DMSO), 5 days (fraction); higher = more cells survive
[1] = compound: NCC(=O)Nc1ccc(-n2nc(C(F)(F)F)cc2-c2ccc3c(ccc4ccccc43)c2)cc1 + CS(=O)(=O)CCNCc1ccc(-c2ccc3ncnc(Nc4ccc(OCc5cccc(F)c5)c(Cl)c4)c3c2)o1 [Lapatinib] (partner 2 µM)
Procedure, shortened: (§1)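 Lung cancer cell lines were pin-tool dosed in 1536-well plates on the day after seeding, with either a lone drug or a fixed anchor-drug dose plus five library-drug doses (not always all listed) in √10 steps. Nuclei were counted on 4× images after 5 days. Relative viability is the ratio of treated-well to vehicle-well nuclei counts, with each value a median of duplicate plates.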

[2] = compound: C1CSC2=C(C(=O)N1)SC3=C2C=C(C=C3)O [kb NB 142-70] + Cc1nc(NC(=O)N2CCC[C@H]2C(N)=O)sc1-c1ccnc(C(C)(C)C(F)(F)F)c1 [Alpelisib] (partner 2 µM)
Procedure, shortened: as §1

[3] = compound: NCC(=O)Nc1ccc(-n2nc(C(F)(F)F)cc2-c2ccc3c(ccc4ccccc43)c2)cc1 + O=C(CCCCCCC(=O)Nc1ccccc1)NO [Vorinostat] (partner 1 µM)
Procedure, shortened: as §1

[4] = compound: C1CSC2=C(C(=O)N1)SC3=C2C=C(C=C3)O [kb NB 142-70] + N=C(N)NC(=N)NCCc1ccccc1 [Phenformin] (partner 250 µM)
Procedure, shortened: as §1

[5] = compound: C1CSC2=C(C(=O)N1)SC3=C2C=C(C=C3)O [kb NB 142-70] + Nc1ncn([C@H]2C[C@H](O)[C@@H](CO)O2)c(=O)n1 [Decitabine] (partner 2 µM)
Procedure, shortened: as §1

Cell Line	relative viability ([1]; first compound 0.02 µM)	relative viability ([1]; first compound 0.06325 µM)	relative viability ([1]; first compound 0.2 µM)	relative viability ([1]; first compound 0.6325 µM)	relative viability ([1]; first compound 2 µM)	relative viability ([2]; first compound 0.1 µM)	relative viability ([2]; first compound 1 µM)	relative viability ([2]; first compound 3.162 µM)	relative viability ([3]; first compound 0.02 µM)	relative viability ([3]; first compound 0.06325 µM)	relative viability ([3]; first compound 0.2 µM)	relative viability ([3]; first compound 0.6325 µM)	relative viability ([3]; first compound 2 µM)	relative viability ([4]; first compound 0.1 µM)	relative viability ([4]; first compound 1 µM)	relative viability ([4]; first compound 3.162 µM)	relative viability ([5]; first compound 0.1 µM)	relative viability ([5]; first compound 1 µM)	relative viability ([5]; first compound 3.162 µM)
NCI-H2087	1.02	0.988	1.02	1.11	1.15	1.16	1.22	0.858	0.752	0.618	0.809	0.649	0.668	0.432	0.555	0.411	0.277	0.245	0.189
NCI-H2126	0.792	0.763	0.787	0.793	0.751	0.748	0.763	0.758	0.78	0.858	0.768	0.756	0.773	0.525	0.507	0.551	0.555	0.616	0.571
NCI-H2170	0.278	0.285	0.277	0.286	0.288	0.76	0.852	0.561	0.9	0.926	0.849	0.826	0.823	0.429	0.405	0.395	0.501	0.496	0.369
NCI-H2347	0.883	0.939	0.955	1.03	0.884	0.963	1.09	1.01	0.604	0.688	0.685	0.611	0.673	0.412	0.349	0.381	0.651	0.613	0.58
NCI-H2405	1.05	1.12	1.13	1.02	1.13	0.743	0.802	0.723	1.08	1.11	1.1	1.01	1.16	0.397	0.375	0.356	0.727	0.783	0.648
NCI-H3122	1.08	1.05	1.01	0.988	0.934	0.828	0.7	0.442	1.03	0.997	0.995	0.942	0.797	0.412	0.396	0.347	0.487	0.371	0.419
PC-3 [JPC-3]	0.411	0.458	0.428	0.444	0.528	1.06	1.04	0.968	0.902	0.854	0.778	1.03	0.822	0.475	0.472	0.474	0.831	0.833	0.871
PC-14	0.381	0.277	0.305	0.305	0.37	0.902	0.969	0.99	0.685	0.62	–	0.659	0.657	0.658	0.56	0.619	0.187	0.284	0.193
RERF-LC-KJ	0.955	0.828	0.909	0.891	0.82	0.778	0.827	0.706	0.59	0.652	0.609	0.758	0.772	0.409	0.463	0.445	0.681	0.664	0.482
SK-LU-1	0.87	0.841	0.887	0.905	0.929	0.961	0.873	0.307	0.804	0.798	0.91	0.71	0.821	0.546	0.451	0.265	0.589	0.505	0.417
SK-MES-1	0.485	0.403	0.546	0.455	0.46	0.932	0.922	0.833	1.06	1.07	1.17	1.02	1.23	0.754	0.658	0.407	0.466	0.338	0.22
SW 1573	1.17	1	1.17	0.978	1.08	0.86	0.549	0.529	0.647	0.749	0.831	0.703	0.661	0.378	0.264	0.175	0.526	0.378	0.26
